Read-outs that look alike come from different tables or passages of the source.
Columns and labels:
caspase 9 = assay type: cell-based, human
Protocol: (§1) SH-SY5Y human neuroblastoma cells were obtained from the American Tissue Culture Collection (www.atcc.org) and maintained in culture in a replicating state. For caspase assays and cytochrome C release studies they were grown in T75 flasks with DMEM/high glucose containing 10% fetal bovine serum, antibiotic/antimicotic (100 IU/ml of penicillin, 100 μg/ml of streptomycin sulfate, 0.25 μg/ml of amphotericin B) and 50 μg/ml of uridine and 100 μg/ml of pyruvate in a 5% CO2 atmosphere at 37° C. to approximately full confluence (2×10^7 cell/flask). They were then incubated with 5 mM methylpyridinium iodide (MPP+; Sigma; www.sigma-aldrich.com) or 100 μM 25–35 or 35–25 beta amyioid peptides (Bachem; www.bachem.com) for varying times, then harvested. For cell death studies, the cells were plated into 96 well black-bottom plates and grown for 24 hours in DMEM media before being exposed to toxin.
(§2) After exposure to MPP+ or beta amyloid peptide, cells were collected in PBS and centrifuged at 450×g for 6 minutes at 4° C. Cell pellets were resuspended in a hypotonic cell lysis buffer [25 mM HEPES, 5 mM MgCl2, 5 mM EDTA, […] and protease inhibitor cocktail (Sigma Chemical)] at a concentration of 2×10^7 cells/100 μl of lysis buffer. Lysates were subjected to four cycles of freezing and thawing. Cell lysates were then centrifuged at 16,000×g for 30 minutes at 4° C. The supernatant fractions were collected, and protein content was measured by Lowry assay (BioRad). 100 μg of protein was used to measure caspase activity in 96 well plates and was assayed in quadruplicate. The activity was measured using the assay buffer and the protocol provided by the manufacturers. (Biomol, caspase 3; Promega, caspases 3 and 9). […] Chromogen absorbance (p-NA) was measured on an OptiMax plate reader or chromogen fluorescence (AMC) on a SpectraMax Gemini plate reader at zero time and after 30 minutes of incubation at 37 degrees to estimate relative caspase activities. Chromogen signal at zero time was subtracted from the readings at 30 minutes.
(§3) R(+) and S(−) PPX (gifts of Pharmacia Corporation) were obtained as their dihydrochloride salts and dissolved directly into culture media. Bongkreckic acid, an antagonist of the ATP binding site on the adenine nucleotide translocator, was provided as a solution in 1M NH4OH. Aristolochic acid (sodium salt), a phospholipase A2 inhibitor, was obtained from Sigma Chemical Co. In the caspase experiments, drugs were added 1 hour before MPP+ or beta amyloid peptide. In the calcein/cell death experiments, drugs were added 4 hours before MPP+.

caspase 3 [1] = assay type: cell-based, human
Protocol: as §1, §2, §3

caspase 3 [2] = settings: SH-SY5Y
Protocol: as §1, with “For cell death studies, the cells were plated into 96 well black-bottom plates and grown for 24 hours in DMEM media before being exposed to toxin.” left out
After exposure to MPP+ or beta amyloid peptide, cells were collected in PBS and centrifuged at 450×g for 6 minutes at 4° C. […] The supernatant fractions were collected, and protein content was measured by Lowry assay (BioRad). […] The activity was measured using the assay buffer and the protocol provided by the manufacturers. […] Chromogen absorbance (p-NA) was measured on an OptiMax plate reader or chromogen fluorescence (AMC) on a SpectraMax Gemini plate reader at zero time and after 30 minutes of incubation at 37 degrees to estimate relative caspase activities. Chromogen signal at zero time was subtracted from the readings at 30 minutes. […]

SH-SY5Y cells = assay type: cell-based, human
Protocol: as §1
Cell death was estimated by measuring loss of calcein retention with the “Live-Dead” assay (Molecular Probes; www.molecularprobes.com) in cells grown in 96 well plates and incubated with calcein-AM, according to manufacturer's instructions. Calcein signals were assayed in a SpectraMax Gemini adjustable fluorescent plate reader (Molecular Devices). Calcein fluorescence from cells preincubated with methanol was subtracted from all readings as background. Each assay was performed with 8 wells/condition, which were averaged. 3–8 independent experiments were performed to evaluate a broad range of concentrations of S(−) and R(+) PPX in this paradigm.
as §3

[3] = tested on: D2 family dopamine receptors; settings: cited from earlier work
oxidative stress [4] = settings: 12 SALS subjects
Protocol: The present study was conducted in two phases. […] These participants underwent aspirin loading with subsequent 2,3-DHBA analysis. After receiving 1.3 grams of aspirin po, blood was drawn 2, 3, and 4 hours later. Serum was separated, frozen and stored at −80 degrees. Aliquots of serum were subsequently coded and blinded for 2,3-DHBA and salicylate assays.
The subjects received 1.3 grams of aspirin po, and blood was drawn 3 hours later. Following acquisition of these baseline samples, SALS participants began pramipexole therapy. Dosage escalation was performed similar to PD patients with an attempt made to reach 1.5 mg t.i.d.-q.i.d. as the final dose, following a 7 week titration. After each participant was on his/her highest pramipexole dose for three weeks, the aspirin loading study was performed once again. […] Each participant was then offered the opportunity to continue with pramipexole treatment.
Preparation of serum: 0.9 ml of serum at 4° C. was mixed with 0.2 ml of 1 M perchloric acid and centrifuged at 15,000 rpm for 10 minutes in a refrigerated microcentrifuge.
Assay for 2,3-DHBA: 20 uL of supernatant were injected in duplicate onto a C18 “Catecholamine” Adsorbosphere column (Alltech) perfused at 0.6 ml/min with buffer consisting of 125 ml/L acetonitrile, 1.5 gn/L of sodium heptane sulfonate, 3 ml/L triethylamine, 100 mg/L of Na2 EDTA with final pH adjusted to 2.8 with phosphoric acid. Detection utilized a CouloChem II flow-through electrochemical detector (ESA, with the following settings: guard cell=+600 mV; E1=−100 mV; E2=+400 mV). 2,3-DHBA eluted at 10–10.5 minutes under these conditions.
Assay for salicylate: 50 uL of supernatant were injected in duplicate onto a C8 Kromosil HPLC column (Alltech) perfused at 0.8–1.0 ml/min with 70% methanol/30% water/0.5% trifluoroacetic acid. Salicylate eluted at 6–7 minutes under these conditions and was detected by ultraviolet absorption at 315 nm.

[5] = ALS subjects who completed dose escalation, 3–6 mg per day
Protocol: Following acquisition of these baseline samples, SALS participants began pramipexole therapy. Dosage escalation was performed similar to PD patients with an attempt made to reach 1.5 mg t.i.d.-q.i.d. as the final dose, following a 7 week titration.

[6] = relative to S(−) pramipexole; cited from earlier work
[7] = 8 week toxicology study in mice, pathology of major organs; assay type: in vivo; settings: drinking water, 8 weeks
Protocol: Toxicology studies have also been conducted and no evidence of adverse effects were detected. In particular, an 8 week toxicology study was performed in the mice given R(+) PPX in their drinking water.

oxidative stress [8] = experiment: MPTP-induced forebrain oxidative stress (2,3-DHBA) in mice; assay type: in vivo, C57BL/6 mice; settings: MPTP 30 mg/kg s.c.
Protocol: Male C57BL/6 mice received daily R(+) pramipexole dihydrochloride in drinking water for 8 weeks at doses calculated to provide 0, 10, 30 or 100 mg/kg/day. On the day of the study the mice were injected with 30 mg/kg s.c. of the neurotoxin N-methyl-4-phenyl-1,2,3,6-tetrahydropyridine (MPTP) to increase oxidative stress in the brain. One hour later the mice were injected with 100 mg/kg i.p. of sodium salicylate. One hour after salicylate injection the mice were killed and forebrains analyzed for 2,3-dihydroxybenzoic acid (2,3-DHBA) content.

Question: Which “MPP+-induced increases in caspase 9 activity” value (“MPP+-induced increases” for short) (caspase 9; SH-SY5Y, 5 mM MPP+ 8 hr, 25 μM aristolochic acid) does the source give for `COc1cccc2c1cc([N+](=O)[O-])c1c(C(=O)O)cc3c(c12)OCO3` [aristolochic acid, Aristolochic acid] here?
Answer: blocked

Question: And the “MPP+-induced caspase 3 activation” value (caspase 3 [1]; SH-SY5Y, 5 mM MPP+ 24 hours, 25 μM aristolochic acid, p<0.05 vs MPP+)?
Answer: prevented increases

Question: Which results are given for `CCCN[C@H]1CCc2nc(N)sc2C1` [S(−) PPX, S(−)-2-amino-4,5,6,7-tetrahydro-6-propylaminobenzathiazole]?
Answer: reduction of the increases in caspase 3 activity following BA 25–35 peptide (caspase 3 [2]; 100 μM beta amyloid 25–35): about 70%; effect on caspase 3 activity by itself (caspase 3 [2]; drug alone without toxin): no suppressive effect; calcein retention in the presence of MPP+, enantiomer comparison (SH-SY5Y cells): greater calcein retention than R(+) PPX; calcein uptake after MPP+ (SH-SY5Y cells): substantially restored; MPP+-induced increases in caspase 9 activity (caspase 9): blocked; MPP+-induced caspase 3 activation (caspase 3 [1]): suppressed; dopamine agonist activity [3]: potent agonist; mean reduction of serum 2,3-DHBA concentration (oxidative stress [4]; 3–6 mg per day oral, pre vs post treatment, 3 hours after 1.3 grams aspirin, p=0.015): about 45%; average reduction of serum 2,3-DHBA normalized to salicylate levels (oxidative stress [4]; 3–6 mg per day oral, pre vs post treatment, p=0.010): 59%; individual serum levels of 2,3-DHBA pre vs post treatment (oxidative stress [4]; without exception): reduced; tolerability [5]: well tolerated

Question: For `CCCN[C@@H]1CCc2nc(N)sc2C1.Cl.Cl` [R(+) PPX, R(+)-2-amino-4,5,6,7-tetrahydro-6-propylaminobenzathiazole dihydrochloride], which “potency to produce the side effects that result from the use of S(−) pramipexole” value [6] is on record?
Answer: ≤ 1%

Question: What about the “calcein retention in the presence of MPP+, enantiomer comparison” value (SH-SY5Y cells; 3 nM PPX, 5 mM MPP+ 24 hours, p=0.035) of the same molecule?
Answer: greater calcein retention than S(−) PPX

Question: What about the “calcein uptake after MPP+” value (SH-SY5Y cells; SH-SY5Y, 5 mM MPP+ 24 hours, 30 nM PPX added 4 hours before, effect retained through 30 μM) of the same molecule?
Answer: substantially restored

Question: What about the “pathological examination of all major organs” value [7] of the same molecule?
Answer: no lesions were found

Question: And the “MPP+-induced increases” value (caspase 9; SH-SY5Y, 5 mM MPP+ 8 hr, 1 mM PPX)?
Answer: blocked

Question: And the “MPP+-induced caspase 3 activation” value (caspase 3 [1]; SH-SY5Y, 5 mM MPP+ 24 hours, 1 mM PPX added 1 hour before, p<0.05 vs MPP+)?
Answer: suppressed

Question: And the dopamine agonist activity [3]?
Answer: very little dopamine agonist activity

Question: What about the “forebrain oxidative stress produced by MPTP (2,3-DHBA)” value (oxidative stress [8]; 30 mg/kg/day in drinking water for 8 weeks) of the same molecule?
Answer: significantly reduced

Question: And the “forebrain oxidative stress produced by MPTP (2,3-DHBA)” value (oxidative stress [8]; 100 mg/kg/day in drinking water for 8 weeks)?
Answer: significantly reduced

Question: Which results are given for `C[n+]1ccc(-c2ccccc2)cc1.[I-]` [MPP+, methylpyridinium iodide]?
Answer: reduction of calcein uptake (SH-SY5Y cells; SH-SY5Y, 5 mM MPP+ alone, 24 hours): about 60%; increase of caspase 3 activity (caspase 3 [1]; SH-SY5Y, 5 mM MPP+, by 24 hours): about 2 fold

Question: With `CO[C@H](C/C=C\C=C\CC/C=C/C[C@H](C)/C=C/C(=C\C(=O)O)CC(=O)O)/C(C)=C\C=C(/C)C(=O)O` [bongkreckic acid, Bongkreckic acid] as the molecule, how does the “MPP+-induced increases” value (caspase 9; SH-SY5Y, 5 mM MPP+ 8 hr, 250 μM bongkreckic acid) read?
Answer: blocked

Question: What about the “MPP+-induced caspase 3 activation” value (caspase 3 [1]; SH-SY5Y, 5 mM MPP+ 24 hours, 250 μM bongkreckic acid, p<0.05 vs MPP+) of the same molecule?
Answer: blocked

Source: patent US7157480B2, “Use of pramipexole to treat amyotrophic lateral sclerosis” (priority 2001, dated 2007)
